Source: ChEMBL document CHEMBL1138048, “Synthesis and anticancer activity of brefeldin A ester derivatives” (J Med Chem, 2006)

Key:
A549 = experiment: Antiproliferative activity against human A549 cell line; format: functional
SF-539 = experiment: Antiproliferative activity against human SF539 cell line; format: functional
UACC-62 = experiment: Antiproliferative activity against human UACC62 cell line; format: functional
OVCAR-3 = experiment: Antiproliferative activity against human OVCAR-3 cell line; format: functional
SN12C = experiment: Antiproliferative activity against human SN12C cell line; format: functional
PC-3 = experiment: Antiproliferative activity against human PC3 cell line; format: functional
MCF7 = experiment: Antiproliferative activity against human MCF7 cell line; format: functional
[1] = test system: Panel NCI-60 (60 carcinoma cell lines); experiment: Antiproliferative activity against NCI60 cell line; format: functional; conditions: Homo sapiens
HCT-116 = experiment: Antiproliferative activity against HCT116 cell line; format: functional; conditions: Homo sapiens
[2] = Half life in rat plasma; format: ADME, cell-free

Structure (SMILES) | GI50 (A549) [nM] | GI50 (OVCAR-3) [nM] | GI50 (PC-3) [nM] | GI50 (MCF7) [nM] | GI50 (HCT-116) [nM] | half-life [2] [min] | GI50 (SF-539) [nM] | GI50 (UACC-62) [nM] | GI50 (SN12C) [nM] | GI50 [1] [nM]
CC(=O)O[C@@H]1C[C@@H]2[C@H](/C=C/CCC[C@H](C)OC(=O)/C=C/[C@H]2OC(C)=O)C1 | 850 | 1480 | 2140 | 2630 | 22900 |  | 58900 | 10 | 10 | 450
C[C@H]1CCC/C=C/[C@@H]2C[C@H](O)C[C@H]2[C@H](OC(=O)CCCC(=O)O)/C=C/C(=O)O1 | 33100 | 36300 | 43600 | 39800 | 25700 |  | 31600 | 31600 | 30200 | 29500
C[C@H]1CCC/C=C/[C@@H]2C[C@H](OC(=O)CCCC(=O)O)C[C@H]2[C@H](O)/C=C/C(=O)O1 | 33200 | 20400 | 19500 | 19000 | 21400 | > 1440 | 22400 |  | 32400 | 13000
C[C@H]1CCC/C=C/[C@@H]2C[C@H](OC(=O)CCCC(=O)NCCCCCCO)C[C@H]2[C@H](O)/C=C/C(=O)O1 | 700 |  | 330 | 180 | 650 |  |  |  |  | 470
CC(=O)O[C@@H]1C[C@H]2[C@H](O)/C=C/C(=O)O[C@@H](C)CCC/C=C/[C@@H]2C1 | 10 | 10 | 40 | 20 | 1150 | 30 | 5250 | 10 | 10 | 40
C[C@H]1CCC/C=C/[C@@H]2C[C@H](O)C[C@H]2[C@H](O)/C=C/C(=O)O1 [BREFELDIN A] | 40 | 30 | 50 | 20 | 30 | > 1440 |  | 20 |  | 40

Now from value to compound, other results behind:

GI50 (A549) [nM] | GI50 (OVCAR-3) [nM] | GI50 (PC-3) [nM] | GI50 (MCF7) [nM] | GI50 (HCT-116) [nM] | half-life [2] [min] | Structure (SMILES) | GI50 (SF-539) [nM] | GI50 (UACC-62) [nM] | GI50 (SN12C) [nM] | GI50 [1] [nM]
4170 | 2400 | 40 | 310 | 3470 |  | COC(=O)CCCC(=O)O[C@@H]1/C=C/C(=O)O[C@@H](C)CCC/C=C/[C@@H]2C[C@H](O)C[C@H]21 | 3390 | 10 | 10 | 160
12900 | 600 | 5010 | 2570 | 3470 |  | COC(=O)CCCC(=O)O[C@@H]1C[C@@H]2[C@H](/C=C/CCC[C@H](C)OC(=O)/C=C/[C@H]2OC(=O)CCCC(=O)OC)C1 | 5010 | 4470 | 3020 | 5100
50 | 30 | 60 | 40 | 40 | 3 | COC(=O)CCCC(=O)O[C@@H]1C[C@H]2[C@H](O)/C=C/C(=O)O[C@@H](C)CCC/C=C/[C@@H]2C1 | 70 | 130 | 200 | 110
> 100000 | > 100000 | > 100000 | > 100000 | > 100000 |  | C[C@H]1CCC/C=C/[C@@H]2C[C@H](OC(=O)CCCC(=O)O)C[C@H]2[C@H](OC(=O)CCCC(=O)O)/C=C/C(=O)O1 | > 100000 | > 100000 | > 100000 | 97700
